Measured values: ChEMBL document CHEMBL3244371, “An approach to peripheral vasodilator-beta-adrenergic blocking agents” (J Med Chem, 1977)

Columns and labels:
[1] = system: Rattus norvegicus; assay: Antihypertensive activity in spontaneously hypertensive rat assessed as maximum fall in mean arterial pressure at 0.312 mg/kg, po; format: functional, Artery
[2] = system: Rattus norvegicus; assay: Antihypertensive activity in spontaneously hypertensive rat assessed as maximum fall in mean arterial pressure at 1.25 mg/kg, po; format: functional, Artery
[3] = system: Rattus norvegicus; assay: Antihypertensive activity in spontaneously hypertensive rat assessed as maximum fall in mean arterial pressure at 5 mg/kg, po; format: functional, Artery
[4] = system: Rattus norvegicus; assay: Antihypertensive activity in spontaneously hypertensive rat assessed as duration of effect at 0.312 mg/kg, po; format: functional
[5] = system: Rattus norvegicus; assay: Antihypertensive activity in spontaneously hypertensive rat assessed as duration of effect at 1.25 mg/kg, po; format: functional
[6] = system: Rattus norvegicus; assay: Antihypertensive activity in spontaneously hypertensive rat assessed as duration of effect at 5 mg/kg, po; format: functional
[7] = system: Canis familiaris; assay: Peripheral vasodilating activity in anesthetized trachea-cannulated mongrel dog assessed as increase in iliac blood flow at 60 ug administered intraarterially in presence of isoproterenol; format: functional, Canis lupus familiaris, Artery
[8] = system: Canis familiaris; assay: Blockade of isoprolerenol-induced hypotension in iv dosed anesthetized trachea-cannulated mongrel dog assessed as mean arterial pressure; format: functional; details: Canis lupus familiaris, Artery
[9] = system: Canis familiaris; assay: Blockade of isoprolerenol-induced tachycardia in iv dosed anesthetized trachea-cannulated mongrel dog assessed as heart rate; format: functional; details: Canis lupus familiaris
[10] = system: Rattus norvegicus; assay: Antihypertensive activity in spontaneously hypertensive rat assessed as maximum fall in mean arterial pressure at 1 mg/kg, po; format: functional, Artery
[11] = system: Rattus norvegicus; assay: Antihypertensive activity in spontaneously hypertensive rat assessed as maximum fall in mean arterial pressure at 2 mg/kg, po; format: functional, Artery
[12] = system: Rattus norvegicus; assay: Antihypertensive activity in spontaneously hypertensive rat assessed as maximum fall in mean arterial pressure at 8 mg/kg, po; format: functional, Artery
[13] = system: Rattus norvegicus; assay: Antihypertensive activity in spontaneously hypertensive rat assessed as duration of effect at 1 mg/kg, po; format: functional
[14] = system: Rattus norvegicus; assay: Antihypertensive activity in spontaneously hypertensive rat assessed as duration of effect at 2 mg/kg, po; format: functional
[15] = system: Rattus norvegicus; assay: Antihypertensive activity in spontaneously hypertensive rat assessed as duration of effect at 8 mg/kg, po; format: functional
[16] = system: Canis familiaris; assay: Peripheral vasodilating activity in anesthetized trachea-cannulated mongrel dog assessed as increase in iliac blood flow at 800 ug administered intraarterially co-treated with 320 ug/kg timolol in presence of isoproterenol; format: functional, Canis lupus familiaris, Artery
[17] = system: Canis familiaris; assay: Peripheral vasodilating activity in anesthetized trachea-cannulated mongrel dog assessed as increase in iliac blood flow at 800 ug administered intraarterially in presence of isoproterenol; format: functional, Canis lupus familiaris, Artery
[18] = system: Canis familiaris; assay: Peripheral vasodilating activity in anesthetized trachea-cannulated mongrel dog assessed as increase in iliac blood flow at 800 ug administered intraarterially co-treated with 800 ug/kg timolol in presence of isoproterenol; format: functional, Canis lupus familiaris, Artery
[19] = system: Canis familiaris; assay: Toxicity in renal hypertensive dog assessed as elevation in heart rate at 4 to 16 mg/kg; format: organism-based, Canis lupus familiaris; design: dose 4-16 mg/kg; details: in vivo
[20] = system: Rattus norvegicus; assay: Antihypertensive activity in spontaneously hypertensive rat assessed as maximum fall in mean arterial pressure at 20 mg/kg, ip; format: functional, Artery; details: route intraperitoneal
[21] = system: Rattus norvegicus; assay: Antihypertensive activity in spontaneously hypertensive rat assessed as maximum fall in mean arterial pressure at 20 mg/kg, po; format: functional, Artery
[22] = system: Canis familiaris; assay: Peripheral vasodilating activity in anesthetized trachea-cannulated mongrel dog assessed as increase in iliac blood flow at 1600 ug administered intraarterially in presence of isoproterenol; format: functional, Canis lupus familiaris, Artery
[23] = system: Canis familiaris; assay: Peripheral vasodilating activity in anesthetized trachea-cannulated mongrel dog assessed as increase in iliac blood flow at 1600 ug administered intraarterially co-treated with 2000 ug/kg timolol in presence of isoproterenol; format: functional, Canis lupus familiaris, Artery
[24] = system: Rattus norvegicus; assay: Antihypertensive activity in spontaneously hypertensive rat assessed as duration of effect at 20 mg/kg, ip; format: functional; details: route intraperitoneal
[25] = system: Canis familiaris; assay: Peripheral vasodilating activity in anesthetized trachea-cannulated mongrel dog assessed as increase in iliac blood flow at 1600 ug administered intraarterially co-treated with 800 ug/kg timolol in presence of isoproterenol; format: functional, Canis lupus familiaris, Artery
[26] = system: Rattus norvegicus; assay: Antihypertensive activity in spontaneously hypertensive rat assessed as duration of effect at 20 mg/kg, po; format: functional
[27] = system: Canis familiaris; assay: Peripheral vasodilating activity in anesthetized trachea-cannulated mongrel dog assessed as increase in iliac blood flow at 8 ug administered intraarterially in presence of isoproterenol; format: functional, Canis lupus familiaris, Artery
[28] = system: Canis familiaris; assay: Peripheral vasodilating activity in anesthetized trachea-cannulated mongrel dog assessed as increase in iliac blood flow at 16 ug administered intraarterially in presence of isoproterenol; format: functional, Canis lupus familiaris, Artery
[29] = system: Canis familiaris; assay: Peripheral vasodilating activity in anesthetized trachea-cannulated mongrel dog assessed as increase in iliac blood flow at 32 ug administered intraarterially in presence of isoproterenol; format: functional, Canis lupus familiaris, Artery
[30] = system: Canis familiaris; assay: Peripheral vasodilating activity in anesthetized trachea-cannulated mongrel dog assessed as increase in iliac blood flow at 8 ug administered intraarterially co-treated with 2000 ug/kg timolol in presence of isoproterenol; format: functional, Canis lupus familiaris, Artery
[31] = system: Canis familiaris; assay: Peripheral vasodilating activity in anesthetized trachea-cannulated mongrel dog assessed as increase in iliac blood flow at 16 ug administered intraarterially co-treated with 2000 ug/kg timolol in presence of isoproterenol; format: functional, Canis lupus familiaris, Artery
[32] = system: Canis familiaris; assay: Peripheral vasodilating activity in anesthetized trachea-cannulated mongrel dog assessed as increase in iliac blood flow at 32 ug administered intraarterially co-treated with 2000 ug/kg timolol in presence of isoproterenol; format: functional, Canis lupus familiaris, Artery

CC(C)(C)NC[C@H](O)COc1ccc(-c2nc(C(F)(F)F)c[nH]2)cc1 gave an Activity [1] of 24 mmHg, an Activity [2] of 40 mmHg and an Activity [3] of 56 mmHg. The Time [4] was 12 h, the Time [5] was 18 h and the Time [6] was greater than 24 h. It also gave an Activity [7] of 5 mL/min, an ED50 [8] of 0.038 mg/kg and an ED50 [9] of 0.0076 mg/kg.
FC(F)(F)c1cnc(-c2cccnc2)[nH]1 was tested, and the Activity [10] was 21 mmHg, the Activity [11] was 39 mmHg and the Activity [12] was 48 mmHg. The Time [13] was 2 h, the Time [14] was 6 h and the Time [15] was greater than 6 h. For the same compound, the Activity [16] was 99 mL/min, the Activity [17] was 93 mL/min and the Activity [18] was 76 mL/min. For the same compound, the Activity [19] was 82 bpm.
With CC(C)(C)NC[C@H](O)COc1ncccc1-c1ncc(C(F)(F)F)[nH]1 the Activity [20] was 8 mmHg, the Activity [21] was 6 mmHg and the Activity [22] was 4 mL/min. It also gave an Activity [23] of 9 mL/min, an ED50 [8] of 0.125 mg/kg and an ED50 [9] of 0.25 mg/kg.
CC(C)(C)NC[C@H](O)COc1ccc(-c2ncc(C(F)(F)F)[nH]2)cn1 showed an Activity [20] of 40 mmHg, an Activity [21] of 0 mmHg and a Time [24] greater than 7 h. The Activity [22] was 103 mL/min, the Activity [25] was 38 mL/min and the ED50 [8] was 0.058 mg/kg. It also gave an ED50 [9] of 0.0025 mg/kg.
With CC(C)(C)NC[C@H](O)COc1ccccc1-c1ncc(C(F)(F)F)[nH]1 the Activity [20] was 32 mmHg, the Activity [21] was 0 mmHg and the Time [24] was less than 7 h. The Activity [22] was 35 mL/min, the Activity [23] was 33 mL/min and the ED50 [8] was 0.1 mg/kg. It also gave an ED50 [9] of 0.3 mg/kg.
CC(C)(C)NC[C@H](O)COc1cccc(-c2ncc(C(F)(F)F)[nH]2)c1 showed an Activity [20] of 40 mmHg, an Activity [21] of 5 mmHg and a Time [24] greater than 7 h. It also gave an ED50 [8] of 0.086 mg/kg and an ED50 [9] greater than 1 mg/kg.
CC(C)(C)NC[C@@H](O)COc1ccc(-c2ncc(C(F)(F)F)[nH]2)cc1 was tested, and the Activity [21] was 49 mmHg, the Activity [2] was 16 mmHg and the Activity [3] was 22 mmHg. It also gave a Time [26] of 8 h, a Time [5] of 2 h and a Time [6] of 6 h. The ED50 [8] was greater than 1 mg/kg and the ED50 [9] was 0.102 mg/kg.
With CC(C)(C)NCC(O)COc1ccc(-c2nc(C(F)(F)F)c[nH]2)cc1 (racemic) the Activity [1] was 21 mmHg, the Activity [2] was 36 mmHg and the Activity [3] was 49 mmHg. For the same compound, the Time [4] was 7 h, the Time [5] was 18 h and the Time [6] was 18 h. For the same compound, the Activity [22] was 9 mL/min, the Activity [27] was 52 mL/min and the Activity [28] was 58 mL/min. It also gave an Activity [29] of 63 mL/min, an Activity [23] of 15 mL/min and an Activity [30] of 10 mL/min. It also gave an Activity [31] of 17 mL/min, an Activity [32] of 17 mL/min and an ED50 [8] of 0.036 mg/kg. It also gave an ED50 [9] of 0.009 mg/kg.
NNc1nncc2ccccc12 [HYDRALAZINE] was tested, and the Activity [10] was 30 mmHg, the Activity [11] was 40 mmHg and the Time [13] was 6 h. The Time [14] was greater than 7 h and the Activity [22] was 66 mL/min.
